From patent US4418068A, “Antiestrogenic and antiandrugenic benzothiophenes” (Eli Lilly and Company, priority 1981, dated 1983)

Tests used:
estrogenic response [1] = assay: Estrogenic Response Test, immature rats (uterine weight); type: in vivo, immature 40-45 g. female rats; settings: s.c.
Protocol: (§1) The first test reported below is used to determine the estrogenic potency of compounds. It is well known that many compounds having antiestrogenic activity also, typically, have estrogenic activity. As has been explained, estrogenic activity is a liability in an antiestrogen, and thus it is important to identify antiestrogens having a minimum amount of estrogenic activity. This test was conducted with immature 40-45 g. female rats, immature 11-13 g. mice, and adult ovariectomized mice. The rats were tested in groups of six, and mice in groups of ten. All of the laboratory animals were from standardized strains and were equilibrated to the laboratory before the test started. Each test was begun by administering the test compound daily for three days, as a subcutaneous injection or by oral gavage, as indicated below in the reports of individual experiments. Untreated control animals were included in each experiment, along with animals to which estradiol was administered subcutaneously. The estradiol-treated animals provided positive controls, showing the physiological effect of a potent estrogen on the individual group of animals used in the experiment. […] The test animals were treated for three days and sacrificed on the fourth day, and the uteri were removed, freed of extraneous tissue, and blotted with paper towels. The uteri were weighed to the nearest 0.1 mg. The tables below report the results of representative experiments. The doses of estradiol and of the compound of this invention are given as the total of the three daily doses. The uterine weights are given, in mg., as the means of all of the organ weights of the animals in a group. Compounds are referred to by their example numbers above.

[2] = system: estrogenic response of estradiol; assay: Antiestrogenic Test, immature rats (uterine weight); type: in vivo; settings: Experiment I, 3 mg., s.c. + estradiol 0.3 mcg.
Protocol: (§2) This test was conducted with immature 40-45 g. female rats, immature 11-13 g. mice, and adult ovariectomized mice. The rats were tested in groups of six, and mice in groups of ten. All of the laboratory animals were from standardized strains and were equilibrated to the laboratory before the test started. Each test was begun by administering the test compound daily for three days, as a subcutaneous injection or by oral gavage, as indicated below in the reports of individual experiments.
(§3) The test animals were treated for three days and sacrificed on the fourth day, and the uteri were removed, freed of extraneous tissue, and blotted with paper towels. The uteri were weighed to the nearest 0.1 mg.
(§4) The uterine weights are given, in mg., as the means of all of the organ weights of the animals in a group. Compounds are referred to by their example numbers above.
(§5) The same standardized types of laboratory animals which were used in the experiments described above were also used in these experiments. […] Untreated control animals were used in each experiment. […] The dosage and sacrifice schedule, and the method of determining uterine weights and reporting data, were the same as the methods described above under Test 1.

estrogenic response [3] = settings: Black and Goode 1980; cited from earlier work
uterine epithelial cells = settings: known side-effect of earlier anti-estrogens; cited from earlier work
[4] = system: androgen-stimulated prostate growth; assay: Anti-Androgen Test, adult castrated male rats (ventral prostate weight); type: in vivo; settings: Experiment A; androgen only, testosterone propionate 0.1 mg./day s.c., 7 days, castrated
Protocol: The antiandrogenic property of the compounds was evaluated in the following tests, in which the compound of Example 3 was used again.
(§6) The animals used in this test were adult male rats having a body weight which averaged about 330 g. when the experiment ended. All of the animals to be used in the experiment were castrated by the scrotal route, and were held untreated for 3 days. On the fourth day, subcutaneous administration of 0.1 mg./day of an exogenous androgen, testosterone propionate, was begun, and was continued for seven consecutive days. An untreated control group of animals received injections of 0.1 ml./day of corn oil as a blank treatment. The compound of this invention was administered orally or subcutaneously to the treated animals in 0.1 ml. of corn oil, at the same time that the androgen was administered. The animals were sacrificed 24 hours after the last injection of testosterone propionate, the ventral prostate glands were removed and weighed, and the mean of the weights of each treatment group was reported. The table below reports the mean weights resulting from administration of various doses of the compound along with androgen.
Each treatment group of animals in this experiment consisted of seven to nine animals, except for the untreated control group, which contained twelve animals.

[5] = system: androgen-stimulated prostate growth; assay: Anti-Androgen Test, immature male rats (ventral prostate weight); type: in vivo; settings: androgen only 20 mcg./day s.c.
Protocol: as §6, with “reported.” for “reported. The table below reports the mean weights resulting from administration of various doses of the compound along with androgen.”
This experiment was carried out in the same manner as Experiment A above, except that the test animals were immature male rats, weighing about 120 g. each at sacrifice. Each treatment group consisted of six or seven animals. All treatments in this experiment were administered by subcutaneous injection. The amount of the androgen administered was only 20 mcg./day because of the small size of the animals.
This experiment was also conducted in immature rats having average body weight of about 115 g. when the experiment ended. In other respects, the experiment was as described under Experiment B above. The treatment groups consisted of ten animals each, except for the androgen only group, of 16 animals, and the 5 mg./kg. group, of nine animals.

estrogenic response [6] = assay: Estrogenic Response Test, immature mice (uterine weight); type: in vivo, immature 11-13 g. mice; settings: Experiment D, s.c.
Protocol: as §1

estrogenic response [7] = assay: Estrogenic Response Test, mature ovariectomized mice (uterine weight); type: in vivo, adult ovariectomized mice; settings: Experiment E, s.c.
Protocol: as §1

[8] = system: estrogenic response of estradiol; assay: Antiestrogenic Test, mature ovariectomized mice (uterine weight); type: in vivo, adult ovariectomized mice; settings: Experiment A; estradiol alone 0.3 mcg., s.c.
Protocol: as §2, §3, §4, §5

[9] = system: estrogenic response of estradiol; assay: Antiestrogenic Test, immature mice (uterine weight); type: in vivo; settings: Experiment B; estradiol alone 0.3 mcg., s.c.
Protocol: as §2, §3, §4, §5

estrogenic response [10] = assay: Regression Test: reversal of established estrogenic response (uterine weight); type: in vivo, immature rats; settings: estradiol alone 0.1 mcg./day s.c.
Protocol: The following test was carried out to determine if the compounds of this invention could reverse an estrogenic response, when administration of the compound was started after the estrogenic response had become established.
The test animals were immature rats, and all administrations were by subcutaneous injection.
The mean uterine weights of these groups of animals, respectively, were 97.9, 97.3, 119.9 and 112.3 mg.
The animals were sacrificed on the fifth day and their mean uterine weight was 56.4 mg.
The animals were sacrificed on the seventh day and their mean uterine weight was 57.0 mg.

[11] = Stability of the product on observation after several days; type: physicochemical
[12] = system: DMBA-induced mammary tumors; assay: Tests Against DMBA-Induced mammary tumors; type: in vivo, adult female virgin rats; settings: Experiment D
Text: Mammary tumors were induced in adult female virgin rats by a single 20-mg. oral dose of 7,12-dimethylbenzanthracene. Within about six weeks, visible and palpable tumors were present in the mammary tissue of the rats, and the rats were allocated into treatment and control groups in such a way that each group contained animals having approximately the same size and number of tumors. The size of the tumors was estimated by measuring their cross-sectional area. […]
[…] The treated animals received 1 mg./kg. per day of 6-methoxy-2-(4-hydroxyphenyl)-3-[4-(2-piperidinoethoxy)benzoyl]benzo[b]thiophene, hydrochloride, as a subcutaneous injection in corn oil. The animals were not ovariectomized at the end of the experiment.

[13] = 1 mg./kg. per day s.c., fifth week

CCOC(=O)Oc1ccc(-c2sc3cc(OC(=O)OCC)ccc3c2C(=O)c2ccc(OCCN3CCCCC3)cc2)cc1 [Example 12, 6-ethoxycarbonyloxy-2-(4-ethoxycarbonyloxyphenyl)-3-[4-(2-piperidinoethoxy)benzoyl]benzo[b]thiophene]
Uterine weight (estrogenic response [1]; Experiment C, total dose 3 mg.): 35.8 mg
Uterine weight [2]: 31.8 mg

CC(=O)Oc1ccc(-c2sc3cc(OC(C)=O)ccc3c2C(=O)c2ccc(OCCN3CCCCC3)cc2)cc1 [Example 10, 6-acetoxy-2-(4-acetoxyphenyl)-3-[4-(2-piperidinoethoxy)benzoyl]benzo[b]thiophene]
Uterine weight (estrogenic response [1]; Experiment C, total dose 3 mg.): 30.8 mg
Uterine weight [2]: 32.2 mg

O=C(c1ccc(OCCN2CCCC2)cc1)c1c(-c2ccc(O)cc2)sc2cc(O)ccc12 [6-hydroxy-2-(4-hydroxyphenyl)-3-[4-(2-pyrrolidinoethoxy)benzoyl]benzo[b]thiophene]
antiestrogenic effectiveness vs tamoxifen or trioxifene (estrogenic response [3]): considerably more effective as an antiestrogen
estrogenicity vs tamoxifen or trioxifene (estrogenic response [3]): considerably less estrogenic

CC/C(=C(\c1ccccc1)c1ccc(OCCN(C)C)cc1)c1ccccc1 [Tamoxifen, 1-(4-β-dimethylaminoethoxyphenyl)-1,2-diphenylbut-1-ene]
effect on uterine epithelial cells (uterine epithelial cells): causes abnormal growth of uterine epithelial cells

CCC(=O)O[C@H]1CC[C@H]2[C@@H]3CCC4=CC(=O)CC[C@]4(C)[C@H]3CC[C@]12C [Androgen, testosterone propionate, reference compound]
Mean Prostate Weight [4]: 309 mg
Mean Prostate Weight ([5]; Experiment B): 48.7 mg
Mean Prostate Weight ([5]; Experiment C): 43.5 mg

C[C@]12CC[C@@H]3c4ccc(O)cc4CC[C@H]3[C@@H]1CC[C@@H]2O [Estradiol, reference compound]
Uterine weight (estrogenic response [1]; Experiment A, total dose 0.3 mcg.): 74.6 mg
Uterine weight (estrogenic response [1]; Experiment B, total dose 0.3 mcg.): 56.8 mg
Uterine weight (estrogenic response [1]; Experiment C, total dose 0.3 mcg.): 63.1 mg
Uterine weight (estrogenic response [6]; total dose 0.03 mcg.): 33.3 mg
Uterine weight (estrogenic response [6]; total dose 0.09 mcg.): 48.2 mg
Uterine weight (estrogenic response [6]; total dose 0.3 mcg.): 50.3 mg
Uterine weight (estrogenic response [7]; total dose 0.03 mcg.): 25.8 mg
Uterine weight (estrogenic response [7]; total dose 0.1 mcg.): 44.2 mg
Uterine weight (estrogenic response [7]; total dose 0.3 mcg.): 65.9 mg
Uterine weight [8]: 65.9 mg
Uterine weight [9]: 50.3 mg
mean uterine weight (estrogenic response [10]; eight days): 112.3 mg
mean uterine weight (estrogenic response [10]; four days): 97.3 mg
mean uterine weight (estrogenic response [10]; six days): 119.9 mg
mean uterine weight (estrogenic response [10]; three days): 97.9 mg

CCCCCCCCCCCC(=O)Oc1ccc(-c2sc3cc(OC(=O)CCCCCCCCCCC)ccc3c2C(=O)c2ccc(OCCN3CCCCC3)cc2)cc1 [Example 11, 6-dodecanoyloxy-2-(4-dodecanoyloxyphenyl)3-[4-(2-piperidinoethoxy)benzoyl]benzo[b]thiophene]
Uterine weight (estrogenic response [1]; Experiment C, total dose 3 mg.): 37.1 mg
Uterine weight [2]: 40.0 mg

COc1ccc(-c2sc3cc(OC)ccc3c2C(=O)c2ccc(OCCN3CCCCC3)cc2)cc1.Cl [Example 14, 6-methoxy-2-(4-methoxyphenyl)-3-[4-(2-piperidinoethoxy)benzoyl]benzo[b]thiophene, hydrochloride]
Uterine weight (estrogenic response [1]; Experiment C, total dose 3 mg.): 35.1 mg
Uterine weight [2]: 37.5 mg

O=C(O)C(F)(F)F.O=C(c1ccc(OCCN2CCCCC2)cc1)c1c(-c2ccc(OC(=O)C(F)(F)F)cc2)sc2cc(OC(=O)C(F)(F)F)ccc12 [Example 9, 6-trifluoroacetoxy-2-(4-trifluoroacetoxyphenyl)-3-[4-(2-piperidinoethoxy)benzoyl]benzo[b]thiophene, trifluoroacetate]
Uterine weight (estrogenic response [1]; Experiment C, total dose 3 mg.): 31.3 mg
Uterine weight [2]: 38.1 mg
hydrolysis of ester groups [11]: some hydrolysis of one or both ester groups had occurred

Cl.O=C(Oc1ccc(-c2sc3cc(OC(=O)c4ccccc4)ccc3c2C(=O)c2ccc(OCCN3CCCCC3)cc2)cc1)c1ccccc1 [Example 13, 6-benzoyloxy-2-(4-benzoyloxyphenyl)-3-[4-(2-piperidinoethoxy)benzoyl]benzo[b]thiophene, hydrochloride]
Uterine weight (estrogenic response [1]; Experiment C, total dose 3 mg.): 39.6 mg
Uterine weight [2]: 41.1 mg

COc1ccc2c(C(=O)c3ccc(OCCN4CCCCC4)cc3)c(-c3ccc(O)cc3)sc2c1.Cl [Example 19, 6-Methoxy-2-(4-hydroxyphenyl)-3-[4-(2-piperidinoethoxy)benzoyl]benzo[b]thiophene, hydrochloride]
animals with completely regressed tumors ([12]; 1 mg./kg. per day s.c. in corn oil, fourth week): three of the eight treated animals had completely regressed
completely regressed animals [12, 13]: three completely regressed animals
tumor area, upper end of range (single tumor) [12, 13]: ≤ 1974 sq. mm.
average tumor area, other seven treated animals ([12]; 1 mg./kg. per day s.c., fifth week, animal with burst tumors excluded): 398 square millimeters
tumor area of one animal (largest) ([12]; 1 mg./kg. per day s.c., four weeks): 3764 sq. mm.
average tumor area of the other seven animals ([12]; 1 mg./kg. per day s.c., four weeks, animal with 3764 sq. mm. ignored): 254 sq. mm.
average total tumor area of the treated group ([12]; 1 mg./kg. per day s.c., four weeks, eight animals): 692 square millimeters
